Measurements published in patent US20240101570A1 (AMGEN INC., priority 2020, published 2024).

Columns and labels:
[1] = tested on: HCT116 MTAP null cells; test: HCT116 MTAP null cell proliferation / viability (CellTiter-Glo, 6 days); type: cell-based; conditions: HCT116-MTAP null, 144 h, HCT116 MTAP null cells, 6 days, CellTiter-Glo; read-out: HCT-116 MTAP null IC50
Summary of the method: (§1)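 Viability read by CellTiter-Glo after 6-day compound exposure of MTAP-null and wild-type HCT116 cells grown in RPMI 1640 with 10% FBS. Dosing used 1:3 steps from 1 or 10 μM (8-9 points) or 1:2 steps from 10 or 50 μM (22 points); IC50 taken where fitted curve crosses 50% of control.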

[2] = tested on: HCT116 WT cells; test: HCT116 WT cell proliferation / viability (CellTiter-Glo, 6 days); type: cell-based; conditions: Homo sapiens, HCT-116, 144 h, HCT116 WT cells, 6 days, CellTiter-Glo; read-out: HCT-116 WT IC50
Summary of the method: as §1

| IC50 [1] | IC50 [2] | Structure (SMILES) |
| --- | --- | --- |
| 47 nM | 1570 nM | Nc1nc2ccc(C(=O)N(Cc3ccc(N4CCOCC4)nn3)CC3CC3)cc2c2c1COC2 [Example 452, 4-amino-N-(cyclopropylmethyl)-N-((6-(4-morpholinyl)-3-pyridazinyl)methyl)-1,3-dihydrofuro[3,4-c]quinoline-8-carboxamide] |
| 35 nM | 543 nM | C[C@H](c1ncccn1)N(Cc1ccc(OCC(F)(F)F)nn1)C(=O)c1ccc2nc(N)c3c(c2c1)COC3 [Example 453, 4-amino-N-((1R)-1-(2-pyrimidinyl)ethyl)-N-((6-(2,2,2-trifluoroethoxy)-3-pyridazinyl)methyl)-1,3-dihydrofuro[3,4-c]quinoline-8-carboxamide] |
| 550 nM | 17900 nM | N#Cc1ccc(CN(C(=O)c2ccc3nc(N)c4c(c3c2)COC4)C2CC2)nc1 [Example 454, 4-amino-N-((5-cyano-2-pyridinyl)methyl)-N-cyclopropyl-1,3-dihydrofuro[3,4-c]quinoline-8-carboxamide] |
| 148 nM | 4780 nM | Nc1nc2ccc(C(=O)N(Cc3ccc(Br)cn3)C3CC3)cc2c2c1COC2 [Example 455, 4-amino-N-((5-bromo-2-pyridinyl)methyl)-N-cyclopropyl-1,3-dihydrofuro[3,4-c]quinoline-8-carboxamide] |
| 287 nM | > 10000 nM | Nc1nc2ccc(C(=O)N(Cc3ccc(C(F)F)cn3)C3CC3)cc2c2c1COC2 [Example 456, 4-amino-N-cyclopropyl-N-((5-(difluoromethyl)-2-pyridinyl)methyl)-1,3-dihydrofuro[3,4-c]quinoline-8-carboxamide] |
| 132 nM | 3180 nM | N#Cc1ccc(CN(CC2(C#N)CC2)C(=O)c2ccc3nc(N)c4c(c3c2)COC4)nc1 [Example 457, 4-amino-N-((1-cyanocyclopropyl)methyl)-N-((5-cyano-2-pyridinyl)methyl)-1,3-dihydrofuro[3,4-c]quinoline-8-carboxamide] |
| 26 nM | 361 nM | C[C@H](c1ncccn1)N(Cc1ccc(C2CC2)nn1)C(=O)c1ccc2nc(N)c3c(c2c1)COC3 [Example 458, 4-amino-N-((6-cyclopropyl-3-pyridazinyl)methyl)-N-((1R)-1-(2-pyrimidinyl)ethyl)-1,3-dihydrofuro[3,4-c]quinoline-8-carboxamide] |
| 69 nM | 4500 nM | N#Cc1ccc(CN(C(=O)c2cc3c4c(c(N)nc3cc2Cl)COC4)C2CC2)nc1 [Example 461, 4-amino-7-chloro-N-((5-cyano-2-pyridinyl)methyl)-N-cyclopropyl-1,3-dihydrofuro[3,4-c]quinoline-8-carboxamide] |
| 105 nM | 3940 nM | COc1ccc(CN(C(=O)c2ccc3nc(N)c4c(c3c2)COC4)C(C)C)nc1Cl [Example 462, 4-amino-N-((6-chloro-5-methoxy-2-pyridinyl)methyl)-N-(2-propanyl)-1,3-dihydrofuro[3,4-c]quinoline-8-carboxamide] |
| 14 nM | 440 nM | COC[C@@H](C)N(Cc1ccc(Br)nn1)C(=O)c1ccc2nc(N)c3c(c2c1)COC3 [Example 463, 4-amino-N-((6-bromo-3-pyridazinyl)methyl)-N-((2R)-1-methoxy-2-propanyl)-1,3-dihydrofuro[3,4-c]quinoline-8-carboxamide] |
| 7 nM | 240 nM | Nc1nc2cc(Cl)c(C(=O)N(Cc3ccc(C(F)(F)F)cn3)CC3CC3)cc2c2c1COC2 [Example 464, 4-amino-7-chloro-N-(cyclopropylmethyl)-N-((5-(trifluoromethyl)-2-pyridinyl)methyl)-1,3-dihydrofuro[3,4-c]quinoline-8-carboxamide] |
| 31 nM | 1230 nM | CC(C)N(Cc1ccc(OC(F)(F)F)cn1)C(=O)c1ccc2nc(N)c3c(c2c1)CO[C@@H]3C [Example 465, (3R)-4-amino-3-methyl-N-(2-propanyl)-N-((5-(trifluoromethoxy)-2-pyridinyl)methyl)-1,3-dihydrofuro[3,4-c]quinoline-8-carboxamide] |
| 28 nM | 217 nM | C[C@H](c1ncn(C)n1)N(Cc1ccc(C(F)F)cn1)C(=O)c1ccc2nc(N)c3c(c2c1)CO[C@@H]3C [Example 466, (3R)-4-amino-N-((5-(difluoromethyl)-2-pyridinyl)methyl)-3-methyl-N-((1R)-1-(1-methyl-1H-1,2,4-triazol-3-yl)ethyl)-1,3-dihydrofuro[3,4-c]quinoline-8-carboxamide] |
| 14 nM | 332 nM | C[C@H]1OCc2c1c(N)nc1ccc(C(=O)N(Cc3ccc(C(F)(F)F)cn3)c3cnn(C)c3)cc21 [Example 467, (3R)-4-amino-3-methyl-N-(1-methyl-1H-pyrazol-4-yl)-N-((5-(trifluoromethyl)-2-pyridinyl)methyl)-1,3-dihydrofuro[3,4-c]quinoline-8-carboxamide] |
| 8 nM | 208 nM | COC[C@@H](C)N(Cc1ccc(Br)nn1)C(=O)c1ccc2nc(N)c3c(c2c1)CO[C@@H]3C [Example 468, (3R)-4-amino-N-((6-bromo-3-pyridazinyl)methyl)-N-((2R)-1-methoxy-2-propanyl)-3-methyl-1,3-dihydrofuro[3,4-c]quinoline-8-carboxamide] |
| 25 nM | 550 nM | C[C@H](c1ncccn1)N(Cc1cc2c(cn1)OCCC2)C(=O)c1ccc2nc(N)c3c(c2c1)COC3 [Example 469, 4-amino-N-(3,4-dihydro-2H-pyrano [2,3-c]pyridin-6-ylmethyl)-N-((1R)-1-(2-pyrimidinyl)ethyl)-1,3-dihydrofuro[3,4-c]quinoline-8-carboxamide] |
| 41 nM | 3020 nM | CN(Cc1ccc(C(F)(F)F)cn1)C(=O)c1cc2c3c(c(N)nc2cc1Cl)COC3 [Example 470, 4-amino-7-chloro-N-methyl-N-((5-(trifluoromethyl)-2-pyridinyl)methyl)-1,3-dihydrofuro[3,4-c]quinoline-8-carboxamide] |
| 43 nM | 1160 nM | Nc1nc2ccc(C(=O)N(Cc3ccc(C(F)(F)F)cn3)C34CC(C3)C4)cc2c2c1COC2 [Example 471, 4-amino-N-(bicyclo[1.1.1]pentan-1-yl)-N-((5-(trifluoromethyl)-2-pyridinyl)methyl)-1,3-dihydrofuro[3,4-c]quinoline-8-carboxamide] |
| 267 nM | 14900 nM | CN(Cc1ccc(C#N)cn1)C(=O)c1cc2c3c(c(N)nc2cc1Cl)COC3 [Example 472, 4-amino-7-chloro-N-((5-cyano-2-pyridinyl)methyl)-N-methyl-1,3-dihydrofuro[3,4-c]quinoline-8-carboxamide] |
| 30 nM | 1330 nM | N#Cc1ccc(CN(CC2CC2)C(=O)c2cc3c4c(c(N)nc3cc2Cl)COC4)nc1 [Example 474, 4-amino-7-chloro-N-((5-cyano-2-pyridinyl)methyl)-N-(cyclopropylmethyl)-1,3-dihydrofuro[3,4-c]quinoline-8-carboxamide] |
| 375 nM | 7810 nM | CN(Cc1ccc(C(F)(F)F)cn1)C(=O)c1cc2c3c(c(N)nc2cc1F)COC3 [Example 475, 4-amino-7-fluoro-N-methyl-N-((5-(trifluoromethyl)-2-pyridinyl)methyl)-1,3-dihydrofuro[3,4-c]quinoline-8-carboxamide] |
| 1370 nM | 4460 nM | N#Cc1ccc(CN(C(=O)c2cc3c4c(c(N)nc3cc2F)COC4)C2CC2)nc1 [Example 476, 4-amino-N-((5-cyano-2-pyridinyl)methyl)-N-cyclopropyl-7-fluoro-1,3-dihydrofuro[3,4-c]quinoline-8-carboxamide] |
| 655 nM | 19400 nM | CC(C)N(Cc1ccc(C#N)cn1)C(=O)c1cc2c3c(c(N)nc2cc1F)COC3 [Example 477, 4-amino-N-((5-cyano-2-pyridinyl)methyl)-7-fluoro-N-(2-propanyl)-1,3-dihydrofuro[3,4-c]quinoline-8-carboxamide] |
| 82 nM | 9580 nM | CN(Cc1ccc(C2CC2)cn1)C(=O)c1cc2c3c(c(N)nc2cc1Cl)COC3 [Example 478, 4-amino-7-chloro-N-((5-cyclopropyl-2-pyridinyl)methyl)-N-methyl-1,3-dihydrofuro[3,4-c]quinoline-8-carboxamide] |
| 328 nM | 17100 nM | CN(Cc1ccc(C#N)cn1)C(=O)c1cc2c3c(c(N)nc2cc1F)COC3 [Example 479, 4-amino-N-((5-cyano-2-pyridinyl)methyl)-7-fluoro-N-methyl-1,3-dihydrofuro[3,4-c]quinoline-8-carboxamide] |
| 272 nM | 1450 nM | Nc1nc2cc(Cl)c(C(=O)N(Cc3ccc(C4CC4)cn3)C3CC3)cc2c2c1COC2 [Example 480, 4-amino-7-chloro-N-cyclopropyl-N-((5-cyclopropyl-2-pyridinyl)methyl)-1,3-dihydrofuro[3,4-c]quinoline-8-carboxamide] |
| 74 nM | 5710 nM | C[C@H]1OCc2c1c(N)nc1ccc(C(=O)N(Cc3ccc(C(F)(F)F)cn3)CC(F)(F)F)cc21 [Example 481, (3R)-4-amino-3-methyl-N-(2,2,2-trifluoroethyl)-N-((5-(trifluoromethyl)-2-pyridinyl)methyl)-1,3-dihydrofuro[3,4-c]quinoline-8-carboxamide] |
| 52 nM | 2640 nM | CCOc1ccc(CN(C(=O)c2ccc3nc(N)c4c(c3c2)CO[C@@H]4C)C23CC(C2)C3)nn1 [Example 482, (3R)-4-amino-N-(bicyclo[1.1.1]pentan-1-yl)-N-((6-ethoxy-3-pyridazinyl)methyl)-3-methyl-1,3-dihydrofuro[3,4-c]quinoline-8-carboxamide] |
